Test results as given in US20250353873A1, “COMPOUNDS AND METHODS FOR MODULATING APOE EXPRESSION” (Ionis Pharmaceuticals, Inc., priority 2024, published 2025).
Strand notation (5' to 3'): a small letter for the sugar, then the base; units joined by * are phosphorothioate-linked, units joined directly phosphodiester-linked; [ ] holds rarer units or linkages, { } end groups; capitals alone tell only the bases. [ms] = mesyl phosphoramidate linkage; e = 2'-O-(2-methoxyethyl) (MOE); k = constrained ethyl (cEt); [5mC] = 5-methylcytosine; d = 2'-deoxy (DNA)

Experiments:
human APOE RNA [1] = experiment: Activity in APOE C57BL/6NTac-Apoeem7250 knock-in mice, single ICV bolus, 16 weeks (Example 12); assay type: in vivo; conditions: single ICV bolus 300 μg, 16 weeks post treatment, normalized to mouse Ppia
Procedure, shortened: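 Knock-in mice (3-4 per group) received one ICV bolus of 300 μg oligonucleotide, PBS as control. After 16 weeks, human APOE RNA in cortex and spinal cord measured by RT-qPCR, normalized to mouse Ppia, and reported as % of PBS control.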

human APOE RNA [2] = experiment: Dose-dependent inhibition of human APOE RNA in HepG2 cells, electroporation, 24 hours (Example 6); assay type: cell-based
Description: Modified oligonucleotides selected from the examples above were tested at various doses in HepG2.
HepG2 cells plated at a density of 50,000 cells per well were treated by electroporation with various concentrations of modified oligonucleotide as specified in the tables below. […] APOE RNA levels were measured using the human primer probe set RTS3073 (described herein above). APOE RNA levels were normalized to human GAPDH. Human GAPDH was amplified using human primer probe set RTS 104 (described herein above). Results are presented as percent APOE RNA, relative to the amount of APOE RNA in untreated control cells (% UTC). The half maximal inhibitory concentration (IC50) of each modified oligonucleotide was calculated in GraphPad Prism 10 (GraphPad Software, San Diego, CA) and is also presented in the tables below.

human APOE RNA [3] = experiment: Activity in APOE C57BL/6NTac-Apoeem7250 knock-in mice, single ICV bolus, 4 weeks (Example 10); assay type: in vivo; conditions: single ICV bolus 300 μg
Description: Modified oligonucleotides described above were tested in the APOE C57BL/6NTac-Apoeem7250 knock-in mouse model described above.
APOE C57BL/6NTac-Apoeem7250 knock-in mice were divided into groups of 2-4 mice each. Each mouse received a single ICV bolus of 300 μg of modified oligonucleotide. A group of 3-4 mice received a single ICV bolus with PBS as a negative control.
Four weeks post treatment, mice were sacrificed and RNA was extracted from cortical brain tissue and spinal cord for quantitative real-time RT-PCR analysis of RNA expression of APOE using human primer probe set RTS3073 (described herein above). APOE RNA levels were normalized to mouse Ppia. Mouse Ppia was amplified using primer probe set m_cyclo24 (described herein above). Results are presented as percent human APOE RNA relative to the amount of human APOE RNA in PBS treated animals, (% control). Each experiment is identified in separate tables below.

human APOE RNA [4] = experiment: Dose-dependent inhibition of human APOE RNA in HepG2 cells, electroporation, 50,000 cells per well, RT-PCR normalized to GAPDH (Example 4, Tables 8-10); assay type: cell-based; conditions: HepG2, electroporation, 24-hour treatment
Description: Modified oligonucleotides selected from the examples above were tested at various doses in HepG2 cells. The modified oligonucleotides were tested in a series of experiments that had the same culture conditions. Each experiment is identified in separate tables below.
HepG2 cells plated at a density of 50,000 cells per well were treated by electroporation with various concentrations of modified oligonucleotide as specified in the tables below. […] APOE RNA levels were measured using the human primer probe set RTS3073 (forward sequence […], designated herein as SEQ ID NO: 7; reverse sequence CCATCAGCGCCCTCAGTT, designated herein as SEQ ID NO: 8; probe sequence […], designated herein as SEQ ID NO:9). APOE RNA levels were normalized to human GAPDH. […] Results are presented as percent APOE RNA, relative to the amount of APOE RNA in untreated control cells (UTC).

[5] = Cortex, C57BL/6NTac-Apoeem7250 knock-in mice, 4 weeks (Table 22)
[6] = Spinal Cord, C57BL/6NTac-Apoeem7250 knock-in mice, 4 weeks (Table 22)
[7] = cortex, 4 weeks post treatment, normalized to mouse Ppia
[8] = spinal cord, 4 weeks post treatment, normalized to mouse Ppia

Substance	APOE RNA (% control) Cortex (human APOE RNA [1]) [% control]	APOE RNA (% control) Spinal Cord (human APOE RNA [1]) [% control]	IC50 (human APOE RNA [2]) [µM]	APOE RNA (% UTC) (human APOE RNA [2]; 5 nM)	APOE RNA (% UTC) (human APOE RNA [2]; 13 nM)	APOE RNA (% UTC) (human APOE RNA [2]; 33 nM)	APOE RNA (% UTC) (human APOE RNA [2]; 82 nM)	APOE RNA (% UTC) (human APOE RNA [2]; 205 nM)	APOE RNA (% UTC) (human APOE RNA [2]; 512 nM)	APOE RNA (% UTC) (human APOE RNA [2]; 1,280 nM)	APOE RNA (% UTC) (human APOE RNA [2]; 3,200 nM)	APOE RNA (% UTC) (human APOE RNA [2]; 8,000 nM)	APOE RNA (% UTC) (human APOE RNA [2]; 20,000 nM)	APOE RNA (% control) Cortex (human APOE RNA [3]; [5]) [% control]	APOE RNA (% control) Spinal Cord (human APOE RNA [3]; [6]) [% control]	APOE RNA (% UTC) (human APOE RNA [4]; 5 nM)	APOE RNA (% UTC) (human APOE RNA [4]; 33 nM)	APOE RNA (% UTC) (human APOE RNA [4]; 82 nM)	APOE RNA (% UTC) (human APOE RNA [4]; 205 nM)	APOE RNA (% UTC) (human APOE RNA [4]; 512 nM)	also measured
1736532 (e[5mC]*eT*eT*eG*kG*kTdG[ms]dA[ms]dA[ms]dT*d[5mC]*dT*dT*dT*dA[ms]dT*eT*eA*eA*eA; antisense) [Compound 1736532]	34	45	0.28	81	85	74	71	54	41	32	17	23	5	30	38						
1736513 (e[5mC]*eTeT*eG*eG*kT*dG[ms]dA[ms]dA[ms]dT*d[5mC]*dT*dT*dT*dA[ms]dT*eT*eA*eA*eA; antisense) [Compound 1736513]	53	30	0.72	106	110	114	89	72	47	37	33	9	4	42	52						
1736531 (e[5mC]*eT*eT*eG*eG*kTdG[ms]dA[ms]dA[ms]dT*d[5mC]*dT*dT*dT*dA[ms]dT*eT*eA*eA*eA; antisense) [Compound 1736531]	54	74	0.94	97	91	89	86	77	53	49	33	12	20	42	52						
1736528 (e[5mC]*eT*eT*eG*eG*eTdG[ms]dA[ms]dA[ms]dT*d[5mC]*dT*dT*dT*dA[ms]dT*kT*eA*eA*eA; antisense) [Compound 1736528]			1.63	100	112	107	116	84	62	50	39	23	16	57	56						
1736533 (e[5mC]*eT*eT*eG*eGeT*dG[ms]dA[ms]dA[ms]dT*d[5mC]*dT*dT*dT*dA[ms]dT*kT*eA*eA*eA; antisense) [Compound 1736533]	57	49	0.39	83	83	78	74	55	50	38	28	13	5	34	54						
1736493 (e[5mC]*eTeT*eG*eG*eT*dG[ms]dA[ms]dA[ms]dT*d[5mC]*dT*dT*dT*dA[ms]dT*kT*kA*eA*eA; antisense) [Compound 1736493]	57	51	0.14	73	85	67	58	50	35	25	8	6	8	47	51						
1736535 (e[5mC]*eT*eT*eG*eGkT*dG[ms]dA[ms]dA[ms]dT*d[5mC]*dT*dT*dT*dA[ms]dT*eT*eA*eA*eA; antisense) [Compound 1736535]	47	26	1.66	90	96	99	93	67	69	53	24	51	13	39	63						
1746795 (k[5mC]*kT*dT[ms]kG*dG[ms]dT[ms]dG[ms]dA[ms]dA[ms]dT*d[5mC]*dT*dT*dT*dA[ms]dT*kT*dA[ms]kA*kA; antisense) [Compound 1746795]																119	110	108	99	53	APOE RNA (% UTC) (human APOE RNA [4]; 13 nM): 115 % UTC; APOE RNA (% UTC) (human APOE RNA [4]; 1,280 nM): 57 % UTC; APOE RNA (% UTC) (human APOE RNA [4]; 3,200 nM): 28 % UTC; APOE RNA (% UTC) (human APOE RNA [4]; 8,000 nM): 12 % UTC; APOE RNA (% UTC) (human APOE RNA [4]; 20,000 nM): 6 % UTC; IC50 (human APOE RNA [4]): 1.29 µM; APOE RNA (% control) Cortex (human APOE RNA [3]; [7]): 75 % control; APOE RNA (% control) Spinal Cord (human APOE RNA [3]; [8]): 75 % control
1746806 (k[5mC]*kT*dT[ms]dG[ms]kG*dT[ms]dG[ms]dA[ms]dA[ms]dT*d[5mC]*dT*dT*dT*dA[ms]dT*dT[ms]kA*kA*kA; antisense) [Compound 1746806]																122	107	91	83	80	APOE RNA (% UTC) (human APOE RNA [4]; 13 nM): 101 % UTC; APOE RNA (% UTC) (human APOE RNA [4]; 1,280 nM): 57 % UTC; APOE RNA (% UTC) (human APOE RNA [4]; 3,200 nM): 39 % UTC; APOE RNA (% UTC) (human APOE RNA [4]; 8,000 nM): 25 % UTC; APOE RNA (% UTC) (human APOE RNA [4]; 20,000 nM): 37 % UTC; IC50 (human APOE RNA [4]): 2.58 µM; APOE RNA (% control) Cortex (human APOE RNA [3]; [7]): 92 % control; APOE RNA (% control) Spinal Cord (human APOE RNA [3]; [8]): 75 % control
1746793 (k[5mC]*dT[ms]dT[ms]dG[ms]kG*kT*dG[ms]dA[ms]dA[ms]dT*d[5mC]*dT*dT*dT*dA[ms]dT*kT*kA*dA[ms]kA; antisense) [Compound 1746793]																102	96	96	53	54	APOE RNA (% UTC) (human APOE RNA [4]; 1,280 nM): 34 % UTC; APOE RNA (% UTC) (human APOE RNA [4]; 3,200 nM): 31 % UTC; APOE RNA (% UTC) (human APOE RNA [4]; 8,000 nM): 1 % UTC; APOE RNA (% UTC) (human APOE RNA [4]; 20,000 nM): 2 % UTC; IC50 (human APOE RNA [4]): 0.56 µM; APOE RNA (% control) Cortex (human APOE RNA [3]; [7]): 86 % control; APOE RNA (% control) Spinal Cord (human APOE RNA [3]; [8]): 47 % control
